Assay results reported in patent US10966426B2, “Herbicidal compositions comprising phenylpyrimidines” (BASF SE, priority 2016, dated 2021).

What was measured:
Assay type in all cases: in vivo
[1] = tested on: Matricaria chamomilla; test: greenhouse post-emergence treatment, MATCH; conditions: Matricaria chamomilla, 480 h, MATCH, 20 DAT
Outline: (§1)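 Each species was grown separately and treated once it reached 3 to 15 cm, using actives suspended or emulsified in water. Plants were kept at 10-25° C. or 20-35° C., depending on species. Damage is a 0–100 rating taken during 2 to 4 weeks.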

[2] = tested on: Polygonum convolvulus; test: greenhouse post-emergence treatment, POLCO; conditions: Fallopia convolvulus, 480 h, 20 DAT, POLCO
Outline: as §1

[3] = tested on: Bromus sterilis; test: greenhouse post-emergence treatment, BROST; conditions: Bromus sterilis, 480 h, BROST, 20 DAT
Outline: (§2)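 Plants were grown in pots of loamy sand with approximately 3.0% humus, either sown directly or transplanted as seedlings a few days before treatment, and sprayed with water-based treatments. They were kept at 10-25° C. or 20-35° C. depending on species and rated visually after 2 to 4 weeks on a 0–100 scale (100 = no emergence or complete destruction of above-ground parts).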

[4] = tested on: Ambrosia elatior; test: greenhouse post-emergence treatment, AMBEL; conditions: AMBEL, 20 DAT
Outline: (§3)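 Ratings of 0 to 100 reflect above-ground destruction versus normal growth after 2 to 4 weeks. Actives were sprayed post-emergence as water-diluted 10% emulsion concentrates onto plants 3–15 cm high.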

[5] = tested on: Papaver rhoeas; test: greenhouse post-emergence treatment, PAPRH; conditions: Papaver rhoeas, 480 h, PAPRH, 20 DAT
Outline: as §1

[6] = tested on: Lolium multiflorum; test: greenhouse post-emergence treatment, LOLMU; conditions: Lolium multiflorum, 480 h, LOLMU, 20 DAT
Outline: as §2

[7] = tested on: Avena fatua; test: greenhouse post-emergence treatment, AVEFA; conditions: Avena fatua, 480 h, AVEFA, 20 DAT
Outline: as §2

[8] = tested on: Brachiaria decumbens; test: greenhouse post-emergence treatment, BRADC; conditions: Urochloa decumbens, 480 h, BRADC, 20 DAT
Outline: as §3

[9] = tested on: Poa annua; test: greenhouse post-emergence treatment, POAAN; conditions: Poa annua, 480 h, POAAN, 20 DAT
Outline: as §3

[10] = tested on: Setaria viridis; test: greenhouse post-emergence treatment, SETVI; conditions: Setaria viridis, 480 h, SETVI, 20 DAT
Outline: as §2

[11] = solo pyridate (WP 45%) 112.5 gai/ha
[12] = solo pyridate (WP 45%) 225 gai/ha
[13] = solo pyridate (WP 45%) 450 gai/ha
[14] = solo pyridate (WP 45%) 900 gai/ha
[15] = 30 gai/ha (SL 480 g/l), Table X3, read-out: % activity, solo application
[16] = 60 gai/ha (SL 480 g/l), Table X3, read-out: % activity, solo application
[17] = 120 gai/ha (SL 480 g/l), Table X3, read-out: % activity, solo application

CCCCCCCCSC(=O)Oc1cc(Cl)nnc1-c1ccccc1 [pyridate]
15%: pest or weed control at 112.5 g/ha [10, 11]
10%: % activity [4, 12] | inhibition at 225 g/ha ([4]; Ambrosia artemisiifolia, 480 h, pyridate solo 225 gai/ha) | pest or weed control at 225 g/ha [5, 12] | inhibition at 225 g/ha ([5]; pyridate solo 225 gai/ha) | pest or weed control at 450 g/ha [7, 13] | inhibition at 450 g/ha ([7]; pyridate solo 450 gai/ha)
80%: inhibition at 900 g/ha ([10]; pyridate solo 900 gai/ha)
25%: pest or weed control at 225 g/ha [10, 12] | inhibition at 225 g/ha ([10]; pyridate solo 225 gai/ha)
50%: inhibition at 225 g/ha ([2]; pyridate solo 225 gai/ha) | pest or weed control at 450 g/ha [5, 13] | inhibition at 450 g/ha ([5]; pyridate solo 450 gai/ha) | pest or weed control at 900 g/ha [8, 14] | inhibition at 900 g/ha ([8]; pyridate solo 900 gai/ha)
0%: pest or weed control at 112.5 g/ha [1, 11] | pest or weed control at 225 g/ha [1, 12] | inhibition at 112.5 g/ha ([1]; pyridate solo 112.5 gai/ha) | inhibition at 225 g/ha ([1]; pyridate solo 225 gai/ha) | pest or weed control at 112.5 g/ha [3, 11] | pest or weed control at 225 g/ha [3, 12] | pest or weed control at 900 g/ha [3, 14] | % activity [4, 11] | inhibition at 112.5 g/ha ([4]; Ambrosia artemisiifolia, 480 h, pyridate solo 112.5 gai/ha) | pest or weed control at 112.5 g/ha [5, 11] | inhibition at 112.5 g/ha ([5]; pyridate solo 112.5 gai/ha) | pest or weed control at 112.5 g/ha [6, 11] | inhibition at 112.5 g/ha ([6]; pyridate solo 112.5 gai/ha) | pest or weed control at 112.5 g/ha [7, 11] | pest or weed control at 225 g/ha [7, 12] | inhibition at 112.5 g/ha ([7]; pyridate solo 112.5 gai/ha) | inhibition at 225 g/ha ([7]; pyridate solo 225 gai/ha) | pest or weed control at 112.5 g/ha [8, 11] | inhibition at 112.5 g/ha ([8]; pyridate solo 112.5 gai/ha) | pest or weed control at 112.5 g/ha [9, 11] | pest or weed control at 225 g/ha [9, 12] | pest or weed control at 450 g/ha [9, 13]
65%: pest or weed control at 450 g/ha [10, 13] | inhibition at 450 g/ha ([10]; pyridate solo 450 gai/ha)
85%: inhibition at 450 g/ha ([4]; Ambrosia artemisiifolia, 480 h, pyridate solo 450 gai/ha)
40%: pest or weed control at 450 g/ha [1, 13] | inhibition at 450 g/ha ([1]; pyridate solo 450 gai/ha) | inhibition at 112.5 g/ha ([2]; pyridate solo 112.5 gai/ha)
20%: pest or weed control at 225 g/ha [6, 12] | inhibition at 225 g/ha ([6]; pyridate solo 225 gai/ha) | pest or weed control at 225 g/ha [8, 12] | pest or weed control at 450 g/ha [8, 13] | inhibition at 225 g/ha ([8]; pyridate solo 225 gai/ha) | inhibition at 450 g/ha ([8]; pyridate solo 450 gai/ha)
30%: pest or weed control at 900 g/ha [7, 14]
70%: pest or weed control at 900 g/ha [5, 14] | inhibition at 900 g/ha ([5]; pyridate solo 900 gai/ha)

CC(C)N1C(=O)c2ccccc2NS1(=O)=O [bentazon]
30%: inhibition at 60 g/ha [1, 16] | inhibition at 240 g/ha ([10]; 240 gai/ha (SL 480 g/l), Table X3, read-out: % activity, solo application)
60%: % activity ([4]; bentazon solo 30 gai/ha) | % activity ([4]; bentazon solo 60 gai/ha)
20%: inhibition at 30 g/ha [1, 15] | pest or weed control at 240 g/ha ([8]; bentazon solo 240 gai/ha)
0%: pest or weed control at 30 g/ha ([1]; bentazon solo 30 gai/ha) | pest or weed control at 60 g/ha ([1]; bentazon solo 60 gai/ha) | pest or weed control at 120 g/ha ([1]; bentazon solo 120 gai/ha) | inhibition at 60 g/ha [3, 16] | pest or weed control at 30 g/ha ([3]; bentazon solo 30 gai/ha) | pest or weed control at 60 g/ha ([3]; bentazon solo 60 gai/ha) | pest or weed control at 120 g/ha ([3]; bentazon solo 120 gai/ha) | pest or weed control at 240 g/ha ([3]; bentazon solo 240 gai/ha) | inhibition at 120 g/ha [5, 17] | pest or weed control at 30 g/ha ([5]; bentazon solo 30 gai/ha) | pest or weed control at 60 g/ha ([5]; bentazon solo 60 gai/ha) | pest or weed control at 120 g/ha ([5]; bentazon solo 120 gai/ha) | inhibition at 30 g/ha [8, 15] | inhibition at 60 g/ha [8, 16] | inhibition at 120 g/ha [8, 17] | pest or weed control at 30 g/ha ([8]; bentazon solo 30 gai/ha) | pest or weed control at 60 g/ha ([8]; bentazon solo 60 gai/ha) | pest or weed control at 60 g/ha ([9]; bentazon solo 60 gai/ha) | inhibition at 60 g/ha [10, 16]
